In general, IC50 refers to the concentration needed to halve the response being measured.

In one experiment the target is recombinant human SYK (GST-hSYK fusion protein) (Homo sapiens, UniProt P43405). Kind of experiment: biochemical. The following applies: RHSYK Activity, Table 54A.
Excerpt: Homogeneous Time-Resolved Fluorescence (HTRF) Assay for the Recombinant Human SYK Enzyme:
In the case of `Cc1cc(Nc2nccc(C(F)(F)F)n2)cc(-c2cnc(C3(O)CCN(C(=O)C(O)C(F)(F)F)CC3)s2)c1` (racemic) [Example 54A-60], the concentration for half-maximal inhibition (IC50) is below 100 nM.

Still in this experiment, the particulars now being: Syk IC50, HTRF, recombinant human GST-SYK.
Turning to `Cc1cc(Nc2nccc(C)n2)cc(-c2cnc([C@@]3(O)CC[C@H](C(=O)O)C(C)(C)C3)s2)c1`, the IC50 came out at 1 nM.

Staying with this experiment, now noted: rhSYK Activity (IC50), recombinant human GST-SYK 5 pM, ATP 25 μM, biotinylated substrate peptide 250 nM, HTRF, 10-dose titration.
On to `Cc1cc(Nc2nccc(OC3CCC(O)CC3)n2)cc(-c2cnc(C(C)(O)C(F)(F)F)s2)c1` (mixture of isomers) [Example 96, 4-{[2-({3-methyl-5-[2-(1,1,1-trifluoro-2-hydroxypropan-2-yl)-1,3-thiazol-5-yl]phenyl}amino)-pyrimidin-4-yl]oxy}cyclohexanol], for which the 50% inhibitory concentration (IC50) was below 100 nM.

As to `Cc1cc(Nc2nccc(C(F)(F)F)n2)cc(-c2cnc([C@@H](O)[C@H](O)c3ccc(C(=O)O)cc3)s2)c1` (relative stereo) [Example 146, 4-{(Cis)-1,2-dihydroxy-2-[5-(3-methyl-5-{[4-(trifluoromethyl)pyrimidin-2-yl]amino}phenyl)-1,3-thiazol-2-yl]ethyl}benzoic acid], the IC50 was below 100 nM.

In the case of `Cc1cc(Nc2nccc(C(F)(F)F)n2)cc(-c2cnc(C3CCC(C(N)=O)C(C)(C)C3)s2)c1` (single isomer, unassigned) [154(a), 2,2-Dim ethyl-4-[5-(3-methyl-5-{[4-(trifluoromethyl)pyrimidin-2-yl]amino}phenyl)-1,3-thiazol-2-yl]cyclohexanecarboxamide], the IC50 was below 100 nM.

Regarding `Cc1cc(Nc2nccc(C(F)(F)F)n2)cc(-c2cnc(C3(O)CCNC(=O)CC3O)s2)c1` (single isomer, unassigned) [161(B), [cis]-4,5-dihydroxy-5-[5-(3-methyl-5-{[4-(trifluoromethyl)pyrimidin-2-yl]amino}phenyl)-1,3-thiazol-2-yl]azepan-2-one], the 50% inhibitory concentration (IC50) is below 100 nM.

For `Cc1cc(Nc2nccc(C(F)(F)F)n2)cc(-c2cnc(C3(O)CCC(=O)NCC3O)s2)c1` (single isomer, unassigned) [161(C), [cis]5,6-dihydroxy-5-[5-(3-methyl-5-{[4-(trifluoromethyl)pyrimidin-2-yl]amino}phenyl)-1,3-thiazol-2-yl]azepan-2-one], the IC50 was below 100 nM.

Take `Cc1cc(Nc2nccc(C(F)(F)F)n2)cc(-c2cnc(CNC(CO)C(C)O)s2)c1` (single isomer, unassigned) [Example 88A-43]: the 50% inhibitory concentration (IC50) was below 100 nM.

`Cc1cc(Nc2nccc(C(C)O)n2)cc(-c2cnc(C3(O)CCC(C(=O)O)C(C)(C)C3)s2)c1` (single isomer, unassigned) [Example 100A-14]: the IC50 is below 100 nM.

As for `Cc1cc(Nc2nccc(C(O)C3CC3)n2)cc(-c2cnc(C3(O)CCC(C(=O)O)C(C)(C)C3)s2)c1` (single isomer, unassigned) [Example 100A-18], the IC50 is below 100 nM.

Staying with this experiment, now noted: rhSYK Activity, Table 10, Formula A.
For `Cc1cc(Nc2nccc(C(C)C)n2)cc(-c2cnc(C3(O)CCNC(=O)CC3)s2)c1` (single isomer, unassigned) [Example 10A-2], the IC50 is below 100 nM.

The experiment is the same for the next values; noted with them: rhSYK Activity, Table 33-A.
Consider `Cc1cc(Nc2ncc(Cl)cn2)cc(-c2cnc(C3(O)CCC(C(=O)O)C(C)(C)C3)s2)c1` (single isomer, unassigned) [Example 33A-43], for which the IC50 was below 100 nM.

Regarding `Cc1cc(Nc2ncc(F)cn2)cc(-c2cnc(C3(O)CCC(C(=O)O)C(C)(C)C3)s2)c1` (single isomer, unassigned) [Example 33A-46], the IC50 is 100 to 1000 nM.

For the compound `Cc1cc(Nc2ncc(F)cn2)cc(-c2cnc(C3(O)CCC(C(=O)O)C(C)(C)C3)s2)c1` (single isomer, unassigned) [Example 33A-47], the IC50 is below 100 nM.

Turning to `COC(=O)C1CCC(O)(c2ncc(-c3cc(CO)cc(Nc4nccc(C(F)(F)F)n4)c3)s2)CC1(C)C` (single isomer, unassigned) [Example 33A-50], the 50% inhibitory concentration (IC50) was below 100 nM.

In the case of `CC1(C)CC(O)(c2ncc(-c3cc(CO)cc(Nc4nccc(C(F)(F)F)n4)c3)s2)CCC1C(=O)O` (single isomer, unassigned) [Example 33A-51], the IC50 was below 100 nM.

On to `CC1(C)CC(O)(c2ncc(-c3cc(Nc4nccc(C(F)(F)F)n4)cc(C(F)F)c3)s2)CCC1C(=O)O` (single isomer, unassigned) [Example 33A-57], for which the half-maximal inhibitory concentration (IC50) was below 100 nM.

Consider `CC1(C)CC(O)(c2ncc(-c3cc(F)cc(Nc4nccc(C(F)(F)F)n4)c3)s2)CCC1C(=O)O` (single isomer, unassigned) [Example 33A-63], for which the IC50 is below 100 nM.

Consider `CC1(C)CC(O)(c2ncc(-c3cccc(Nc4nccc(C(F)(F)F)n4)c3)s2)CCC1C(=O)O` (single isomer, unassigned) [Example 33A-66], for which the IC50 was below 100 nM.

Turning to `COc1ccnc(Nc2cc(C)cc(-c3cnc(C4(O)CCC(C(=O)O)C(C)(C)C4)s3)c2)n1` (single isomer, unassigned) [Example 33A-72], the IC50 was below 100 nM.

Consider `Cc1cc(Nc2nccc(C(F)(F)F)n2)cc(-c2cnc(C3(O)CCC(C(=O)O)C(C)(C)C3C)s2)c1` (single isomer, unassigned) [Example 33A-77], for which the IC50 is below 100 nM.

The experiment is the same for the next values; noted with them: rhSYK Activity, Table 33B.
As to `Cc1cc(Nc2nccc(C(F)(F)F)n2)cc(-c2cnc(C3(O)CCC(CC(=O)O)C3)s2)c1` (single isomer, unassigned) [Example 33B-25], the IC50 was below 100 nM.

Staying with this experiment, now noted: rhSYK Activity, Table 33D.
With `Cc1cc(Nc2nccc(C(F)(F)F)n2)cc(-c2cnc(C(C)(O)CCC(C)(C)C(=O)O)s2)c1` (single isomer, unassigned) [Example 33D-3], the IC50 is below 100 nM.

Take `Cc1cc(Nc2nccc(C(F)(F)F)n2)cc(-c2cnc(C(C)(O)c3ccc(C(=O)O)s3)s2)c1` (single isomer, unassigned) [Example 33D-21]: the IC50 was below 100 nM.

Still in this experiment, the particulars now being: rhSYK Activity, Table 45.
Take `Cc1cc(Nc2nccc(C(F)(F)F)n2)cc(-c2cnc(C3(O)CCCN(C(=O)OC(C)(C)C)CC3)s2)c1` (single isomer, unassigned) [45-1]: the half-maximal inhibitory concentration (IC50) fell in the range of 100 to 1000 nM.

Still in this experiment, the particulars now being: rhSYK Activity, Table 54D.
Turning to `Cc1cc(Nc2nccc(C(F)(F)F)n2)cc(-c2cnc(C3(O)CCCN(C(=O)CC(N)=O)CC3)s2)c1` (single isomer, unassigned) [Example 54D-20], the IC50 is below 100 nM.

For `Cc1cc(Nc2nccc(C(F)(F)F)n2)cc(-c2cnc(C3(O)CCCN(C(=O)CC(=O)O)CC3)s2)c1` (single isomer, unassigned) [Example 54D-25], the IC50 is below 100 nM.

`Cc1cc(Nc2nccc(C(F)(F)F)n2)cc(-c2cnc(C3(O)CCCN(C(=O)C(O)CO)CC3)s2)c1` (single isomer, unassigned) [Example 54D-28]: the IC50 is below 100 nM.

Turning to `Cc1cc(Nc2nccc(C(F)(F)F)n2)cc(-c2cnc(C3(O)CCCN(C(=O)c4cnn[nH]4)CC3)s2)c1` (single isomer, unassigned) [Example 54D-36], the IC50 is below 100 nM.

On to `Cc1cc(Nc2nccc(C(F)(F)F)n2)cc(-c2cnc(C3(O)CCCN(C(=O)c4cnon4)CC3)s2)c1` (single isomer, unassigned) [Example 54D-38], for which the 50% inhibitory concentration (IC50) was below 100 nM.

On to `Cc1cc(Nc2nccc(C(F)(F)F)n2)cc(-c2cnc(C3(O)CCCN(C(=O)CCC(N)=O)CC3)s2)c1` (single isomer, unassigned) [Example 54D-41], for which the IC50 is below 100 nM.

As for `Cc1cc(Nc2nccc(C(F)(F)F)n2)cc(-c2cnc(C3(O)CCCN(C(=O)c4cnnn4C)CC3)s2)c1` (single isomer, unassigned) [Example 54D-50], the IC50 was below 100 nM.

On to `Cc1cc(Nc2nccc(C(F)(F)F)n2)cc(-c2cnc(C3(O)CCCN(C(=O)Cn4ccnn4)CC3)s2)c1` (single isomer, unassigned) [Example 54D-52], for which the half-inhibitory concentration (IC50) is below 100 nM.

For `Cc1cc(Nc2nccc(C(F)(F)F)n2)cc(-c2cnc(C3(O)CCCN(C(=O)c4nnnn4C)CC3)s2)c1` (single isomer, unassigned) [Example 54D-57], the IC50 was below 100 nM.

As for `Cc1cc(Nc2nccc(C(F)(F)F)n2)cc(-c2cnc(C3(O)CCCN(C(=O)Cc4nnn[nH]4)CC3)s2)c1` (single isomer, unassigned) [Example 54D-59], the IC50 is below 100 nM.

Consider `CCOC(=O)CC(=O)N1CCCC(O)(c2ncc(-c3cc(C)cc(Nc4nccc(C(F)(F)F)n4)c3)s2)CC1` (single isomer, unassigned) [Example 54D-75], for which the IC50 is below 100 nM.

With `Cc1cc(Nc2nccc(C(F)(F)F)n2)cc(-c2cnc(C3(O)CCCN(C(=O)C(C)(CO)CO)CC3)s2)c1` (single isomer, unassigned) [Example 54D-79], the IC50 is below 100 nM.

`Cc1cc(Nc2nccc(C(F)(F)F)n2)cc(-c2cnc(C3(O)CCCN(C(=O)c4[nH]nnc4Cl)CC3)s2)c1` (single isomer, unassigned) [Example 54D-100]: the IC50 is below 100 nM.

On to `Cc1cc(Nc2nccc(C(F)(F)F)n2)cc(-c2cnc(C3(O)CCCN(C(=O)c4nn[nH]c4C(F)(F)F)CC3)s2)c1` (single isomer, unassigned) [Example 54D-107], for which the IC50 is below 100 nM.

For `Cc1cc(Nc2nccc(C(F)(F)F)n2)cc(-c2cnc(C3(O)CCCN(C(=O)c4n[nH]c(C(F)(F)F)n4)CC3)s2)c1` (single isomer, unassigned) [Example 54D-109], the IC50 is below 100 nM.

Take `Cc1cc(Nc2nccc(C(F)(F)F)n2)cc(-c2cnc(C3(O)CCCN(S(N)(=O)=O)CC3)s2)c1` (single isomer, unassigned) [Example 54D-116]: the IC50 is below 100 nM.

In the case of `Cc1cc(Nc2nccc(C(F)(F)F)n2)cc(-c2cnc(C3(O)CCCN(C(N)=O)CC3)s2)c1` (single isomer, unassigned) [Example 54D-119], the IC50 is below 100 nM.

Consider `Cc1cc(Nc2nccc(C(F)(F)F)n2)cc(-c2cnc(C3(O)CCCN(C(=O)CO)CC3)s2)c1` (single isomer, unassigned) [Example 54D-122], for which the 50% inhibitory concentration (IC50) was below 100 nM.

As for `Cc1cc(Nc2nccc(C(F)(F)F)n2)cc(-c2cnc(C3(O)CCCN(C(=O)c4nc[nH]n4)CC3)s2)c1` (single isomer, unassigned) [Example 54D-124], the IC50 is below 100 nM.
